According to US7842690B2, “Cyclic hydroxylamine as psychoactive compounds” (BTG International Limited, priority 2003, dated 2010):

Columns and labels:
Type in all cases: in vivo
BKW male albino mice = assay: Black and white box test (Example 10); conditions: 0.1 mg/kg IP 40 min before test, 5-min period
rats [1] = assay: Elevated plus maze (X-maze) in rats; conditions: 0.125 mg/kg IP 40 min before test, 5-min period
Source text: The X-maze is constructed from Perspex® and comprises four arms (2 open, 2 closed), each 50 cm long by 9.5 wide and 40 high (closed, arms only) connected by a centre square (9.5×9.5). The open arm has a small lip (3 mm) to assist in the retention of the rat on the arm. The apparatus was housed in a room under subdued lighting conditions.
This model is based on the observation of spontaneous activity of rodents placed in an aversive environment produced by height and often spaces. […] Anxiolytic drugs increase the exploratory activity and the number of entries into the open arms. Rats were allowed at least 1 hour to acclimatise to the environment before testing commenced. Drug treatments were given IP in a pseudo-random, blind design, 40 minutes before behavioural testing, as appropriate. Rats were placed onto the centre square of the X-maze facing a specified open arm, and its behaviour was recorded by remote video over a 5 minute experimental period. The behavioural parameters were subsequently assessed by technicians reviewing the videotape and included: entries into each arm type, time spent on each arm type, rearing, stretch attend postures and head dips.

rats [2] = assay: Escape deficit test (learned helplessness), antidepressant activity; conditions: rats treated IP for 15 days, unavoidable stress 16 h and escape test 24 h after last dosing; out of 30 trials; dose not given
Procedure: The “Escape deficit” test that derives from the classic paradigm of “learned helplessness” was used, as described by Meloni et al. in Pharmacol. Biochem. Behav. 46, 423-6 (1993) and Gambarana et al. in Behav. Pharmacol. 6, 66-73 (1995) and Neuropsychopharmacol. 21, 247-57 (1999). Exposure to an unavoidable stress induces […], which, after 24 hours, makes the rats unable to escape from a nociceptive stimulus. Rats exposed to unavoidable stress make 0-5 escapes out of 30 trials, while naïve rats realise 26-30 escapes. Classical anti-depressives prevent the occurrence of the escape deficit after chronic treatment (15 days).
Rats were treated intra-peritoneally (IP) for 15 days, and then submitted to the unavoidable stress (16 hours after the last dosing) prior to being subjected to the escape test (24 hours after the last dosing).

[3] = test system: Male rats of the Wistar strain; assay: Despair test (forced swim); conditions: 5-min test, mean ± S.E.M.
[4] = test system: Male rats of the Wistar strain; assay: Reserpine-induced changes in open field behaviour; conditions: reserpine 0.1 mg/kg SC daily for 14 days, 5-min test, mean ± S.E.M.
Procedure: Rats treated with the compound of Example 1 were compared to either rats treated with the classical antidepressant, clomipramine or controls in the despair test (forced swim). The same groups were also tested for the reserpine-induced changes in open field behaviour.
Male rats of the Wistar strain (purchased from Charles River, Italy) weighing 220-240 g were used throughout all experiments. For at least 1 week prior to the experiment, the rats were housed four to a cage at a constant temperature of 21° C., and under a 12-h light/dark cycle (lights on between 08:00 and 20:00), with food and water available ad libitum.
An acute IP injection of clomipramine hydrochloride (50 mg/kg) or of the compound of Example 1 (0.2 and 0.5 mg/kg) or physiological saline was made in animals subjected to the reserpine-induced changes in the open field test (the injection was made together with the last reserpine administration, e.g. 1 h prior to the open field test).
All animals were gently manipulated by experienced facilities' keepers avoiding any environmental or physical stress. Rats subjected to drugs or physiological saline administration received an injection of a 1-mL standard volume of solution with a 23-gauge stainless steel needle of 31 mm length (for […]) or 21 mm length (for SC injections). The animals were randomly assigned to any treatment group and were used only once in the behavioural experiments.
Reserpine-induced changes in open field behaviour was studied according to the method described in Naunyn-Schmiedeberg's Arch. Pharmacol. 293: 109-114 (Vetulani et al., 1976). Reserpine (Sigma, USA) was dissolved in physiological saline and injected daily for 14 days at the dose of 0.1 mg/kg subcutaneously (SC). A period of 1 hour after the last injection of reserpine, animals were subjected to the open field test. This consisted of the measure of ambulation and rearing of the rat in a circular area divided into 17 equal sections and lighted by a centrally suspended lamp. The areas explored by the rat at least with anterior paws was recorded in 5 min test. The episodes of rearing towards the centre or the walls were also recorded in 5 min test.
All data were analysed using univariate random design analysis of variance (one-way ANOVA) and the post hoc Dunnett's test for multiple comparisons. A P-value of 0.05 or less was considered as indicative of a significant difference.

[5] = acute 0.2 mg/kg IP 1 h prior to open field test
[6] = acute 0.5 mg/kg IP 1 h prior to open field test
[7] = acute 0.5 mg/kg IP 1 h prior to open field test, listed as Example 1

**Q.** Which results are given for `O=C1CCCC=C1C1COCCN1O` (stereo not shown) [Ex. 1 (Abio 09/01), 2-(4-hydroxy-3-morpholinyl)-2-cyclohexenone]?
**A.** Atot = Total exploratory activity (BKW male albino mice): +10.4; CB/TB = crossings in the white compartment/time in white (BKW male albino mice): −0.05; CN/TN = crossings in the black compartment/time in black (BKW male albino mice): 0.08; Ctot = total number of crossings (BKW male albino mice): +7.5; FI = Initial potency (BKW male albino mice): +11.5; PT = Total passages through the partition (BKW male albino mice): +0.9; RB/TB = rearings in the white compartment/time in white (BKW male albino mice): +0.02; RN/TN = rearings in the black compartment/time in black (BKW male albino mice): +0.06; Rtot = Total number of rearings (BKW male albino mice): +5; TB = time in white section (BKW male albino mice; signed value): +53.4; % time spent in open arms (rats [1]): 39 ± 10%; No. of entries in open arms (rats [1]): 5.2 ± 1.4; No. of escapes (rats [2]): 23.3 ± 1.3; Duration of Immobility ([3]; 0.2 mg/kg IP): 167.00 ± 11.11; Duration of Immobility ([3]; 0.5 mg/kg IP, 0.5 mg/kg): 109.83 ± 9.12; Duration of Immobility ([3]; 0.5 mg/kg IP, listed as Example 1, 0.5 mg/kg): significant decrease of immobility time; No. of Floor Units (ambulation) [4, 5]: 128.1 ± 11.9; Rearing Episodes [4, 5]: 5.9 ± 0.3; No. of Floor Units (ambulation) [4, 6]: 92.2 ± 11.1; Rearing Episodes [4, 6]: 2.2 ± 0.5; No. of Floor Units (ambulation) [4, 7]: decreased ambulation; Rearing Episodes [4, 7]: decreased ambulation (number of floor units entered) and rearing
